Consider seven compounds from ChEMBL document CHEMBL3576770, “Spirotetronate polyketides as leads in drug discovery” (J Nat Prod, 2015).

Structures are written as SMILES.

One series relates to Staphylococcus aureus. Put plainly: Antimicrobial activity against methicillin-resistant Staphylococcus aureus assessed as inhibition of microbial proliferation. It counts as functional.
In a further series the test system is B16. Put plainly: Cytotoxicity against mouse B16 cells. The class given is functional.
Another series relates to P388. Put plainly: Cytotoxicity against mouse P388 cells. The class given is functional, cell-based.
In another series the test system is L1210. Description: Cytotoxicity against mouse L1210 cells. The class given is functional, cell-based.
A short description of series [1]: Antitumor activity against mouse EAC implanted in ddy-SLC mouse at 2.5 mg/kg, ip qd administered day 1 to 5 starting 24 hrs post tumor implantation. The class given is functional, Ehrlich.
A short description of series [2]: Inhibition of gastric ATPase (unknown origin). The class given is tissue-based, Homo sapiens, Stomach.
For series [3], the target named is T1, Gastrin/cholecystokinin type B receptor (Rattus norvegicus, UniProt P30553).
T1 sequence (P30553 whole entry): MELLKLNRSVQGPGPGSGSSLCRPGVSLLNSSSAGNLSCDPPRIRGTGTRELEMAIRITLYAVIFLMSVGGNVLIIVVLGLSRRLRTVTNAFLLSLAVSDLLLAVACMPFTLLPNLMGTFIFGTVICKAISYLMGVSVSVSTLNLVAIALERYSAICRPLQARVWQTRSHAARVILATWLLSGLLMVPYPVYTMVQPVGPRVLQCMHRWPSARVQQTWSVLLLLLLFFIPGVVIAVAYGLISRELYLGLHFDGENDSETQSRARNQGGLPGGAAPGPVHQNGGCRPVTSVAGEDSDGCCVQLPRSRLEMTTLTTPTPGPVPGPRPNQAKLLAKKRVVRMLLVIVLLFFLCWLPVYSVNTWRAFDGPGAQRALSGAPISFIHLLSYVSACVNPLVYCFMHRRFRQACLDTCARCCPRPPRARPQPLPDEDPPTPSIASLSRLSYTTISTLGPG
Description: Inhibition of CCK-B receptor in rat cerebral cortex. The class given is tissue-based.

Series [4] in a line: Toxicity in ip dosed ICR mouse implanted with mouse EAC. Conditions: in vivo. The class given is organism-based.

As to `C[C@@H]1C[C@H](C)C(=O)/C=C/[C@@H]2[C@@H](O)[C@H]3OC4=C(C(=O)O[C@@]42C[C@H]3C)C1=O`, the MIC with Staphylococcus aureus (Staphylococcus aureus, read-out: MIC) is 5.2 µg/mL. Regarding `COC(=O)N[C@@H]1[C@H](C)O[C@@H](O[C@H]2C/C=C(\C)[C@@H]3C=C[C@@H]4[C@@H](O[C@H]5C[C@H](O[C@@H]6CC[C@H](C)[C@@H](O[C@H]7C[C@H](O)[C@H](O[C@@H]8CC[C@H](O)[C@@H](C)O8)[C@@H](C)O7)O6)[C@H](OC(C)=O)[C@@H](C)O5)[C@@H](C)C[C@H](C)[C@H]4[C@]3(C)C(=O)C3=C(O)[C@@]4(CC(C=O)=C[C@H](O)[C@H]4/C=C/2C)OC3)C[C@@]1(C)N`, the INH in the series with B16 was 25 µg/mL; with P388, 6.25 µg/mL.

As to `C=C1C(=O)[C@]2(C)C(=O)O[C@@]34C[C@H](C)C(C(=O)O)=C[C@@H]3CCC[C@@H](C)C[C@@H](C)[C@H]1OC24`, the concentration for half-maximal inhibition (IC50) with L1210 came out at 216 nM; in the series with P388 (Mus musculus, P388) it was 89 nM. The T/C in series [1] worked out at 145.7%. For `CC[C@@H]1C[C@]23OC(=O)C(=C2O)[C@@H](O)[C@@H](C)C[C@H](C)CCC[C@]3(C)C=C1C`, the IC50 in series [2] came to 500 nM.

`CC1=CC2C/C=C/C=C/CC(O)C/C=C/CC(C)C3C(CSC3C(=O)C(=O)O)C(=O)C3=C(O)C2(CC1C)OC3=O` (stereo not given) yielded an IC50 in series [3] of 3.6 nM. Consider `COc1ccc(Cl)c(C)c1C(=O)O[C@@H]1C[C@H](O[C@H]2[C@H](C)O[C@@H](O[C@H]3CCC[C@@H]4[C@@H]3C=C[C@H]3CCCC/C=C/[C@@H]5C=C(C(=O)O)[C@H](C)C[C@]56OC(=O)C(=C6O)OC(=O)[C@@]43C)C(O)[C@@H]2O)O[C@H](C)[C@H]1O` (stereo not given in full), for which, in series [4], the 50% lethal dose (LD50) was 295 mg/kg. For the compound `C[C@@H]1C[C@H](C)C(=O)/C=C/[C@@H]2[C@@H](O)[C@H]3OC4=C(C(=O)O[C@@]42C[C@H]3C)C1=O` (single isomer, unassigned; atropisomer), the MIC with Staphylococcus aureus turned out to be 3.5 µg/mL.
